Laboratory results as given in patent US10239887B2, “Positive allosteric modulators of the muscarinic acetylcholine receptor M4” (Vanderbilt University, priority 2016, dated 2019).

Biological target: T1, human mAChR M4 (Homo sapiens, UniProt P08173)
T1 sequence (P08173 1-479): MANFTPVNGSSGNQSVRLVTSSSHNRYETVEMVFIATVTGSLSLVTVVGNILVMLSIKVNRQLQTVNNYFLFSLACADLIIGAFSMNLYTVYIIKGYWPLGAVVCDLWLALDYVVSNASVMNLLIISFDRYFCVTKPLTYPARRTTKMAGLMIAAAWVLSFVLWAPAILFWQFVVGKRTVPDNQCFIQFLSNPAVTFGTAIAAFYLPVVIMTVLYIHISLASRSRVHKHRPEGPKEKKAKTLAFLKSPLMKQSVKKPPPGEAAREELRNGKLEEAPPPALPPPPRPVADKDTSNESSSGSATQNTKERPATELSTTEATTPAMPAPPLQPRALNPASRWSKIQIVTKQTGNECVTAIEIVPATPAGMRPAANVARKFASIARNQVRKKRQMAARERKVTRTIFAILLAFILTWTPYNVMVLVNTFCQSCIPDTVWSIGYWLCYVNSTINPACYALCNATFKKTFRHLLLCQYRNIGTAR
Test: mAChR M4 cell-based functional assay (calcium flux), human M4
Settings: Table 10; for EC50: Human M4 EC50 (nM), calcium flux, PAM activity with EC20 acetylcholine; for Emax: % ACh maximum at 30 μM

| SMILES | EC50 | Emax |
| --- | --- | --- |
| CCCCCC(=O)N1CC2(CC(Nc3ncnc4c3sc3nnc(C)c(C)c34)C2)C1 [Compound 170, 1-[6-[(3,4-dimethylpyrimido [4′,5′:4,5]thieno[2,3-c]pyridazin-8-yl)amino]-2-azaspiro[3.3]heptan-2-yl]hexan-1-one; 2,2,2-trifluoroacetate acid] | 1260 nM | 41% |
| Cc1nnc2sc3c(N4CCC(C(C)(C)O)C4)ncnc3c2c1C (stereo not shown) [Compound 171, 2-[1-(3,4-dimethylpyrimido [4′,5′:4,5]thieno[2,3-c]pyridazin-8-yl)pyrrolidin-3-yl]propan-2-ol] | 172 nM | 30.9% |
| Cc1nnc2sc3c(NC4CC5(C4)CN(C(=O)c4ccc(C(F)(F)F)cc4)C5)ncnc3c2c1C [Compound 172, [6-[(3,4-dimethylpyrimido [4′,5′:4,5]thieno[2,3-c]pyridazin-8-yl)amino]-2-azaspiro[3.3]heptan-2-yl]-[4-(trifluoromethyl)phenyl]methanone] | 2950 nM | 39.5% |
| Cc1nnc2sc3c(N4CCC(C(=O)Nc5ccc(C(F)(F)F)cc5)C4)ncnc3c2c1C (stereo not shown) [Compound 173, 1-(3,4-dimethylpyrimido [4′,5′:4,5]thieno[2,3-c]pyridazin-8-yl)-N-[4-(trifluoromethyl)phenyl] pyrrolidine-3-carboxamide] | 3310 nM | 24.4% |
| Cc1nnc2sc3c(N4CCC(C(=O)Nc5ccccn5)C4)ncnc3c2c1C (stereo not shown) [Compound 174, 1-(3,4-dimethylpyrimido [4′,5′:4,5]thieno[2,3-c]pyridazin-8-yl)-N-(2-pyridyl)pyrrolidine-3-carboxamide] | 748 nM | 31% |
| Cc1nnc2sc3c(NCc4ccc(F)c(C(C)(C)O)c4)ncnc3c2c1C [Compound 175, 2-[5-[[(3,4-dimethylpyrimido [4′,5′:4,5]thieno[2,3-c]pyridazin-8-yl)amino]methyl]-2-fluoro-phenyl]propan-2-ol] | 722 nM | 52.5% |
| Cc1nnc2sc3c(NCc4ccc(F)c(C(=O)NC5CC5)c4)ncnc3c2c1C [Compound 176, N-cyclopropyl-5-[[(3,4-dimethylpyrimido [4′,5′:4,5]thieno[2,3-c]pyridazin-8-yl)amino]methyl]-2-fluoro-benzamide] | 511 nM | 105% |
| Cc1nnc2sc3c(NCc4ccc(F)c(C(=O)NC5CCC5)c4)ncnc3c2c1C [Compound 177, N-cyclobutyl-5-[[(3,4-dimethylpyrimido [4′,5′:4,5]thieno[2,3-c]pyridazin-8-yl)amino]methyl]-2-fluoro-benzamide] | 570 nM | 98.5% |
| Cc1nnc2sc3c(NCc4ccc(F)c(C(=O)NC5CCCC5)c4)ncnc3c2c1C [Compound 178, N-cyclopentyl-5-[[(3,4-dimethylpyrimido [4′,5′:4,5]thieno[2,3-c]pyridazin-8-yl)amino]methyl]-2-fluoro-benzamide] | 1030 nM | 97.1% |
| Cc1nnc2sc3c(NCc4ccc(F)c(C(=O)NC(C)C)c4)ncnc3c2c1C [Compound 179, 5-[[(3,4-dimethylpyrimido [4′,5′:4,5]thieno[2,3-c]pyridazin-8-yl)amino]methyl]-2-fluoro-N-isopropyl-benzamide] | 748 nM | 95.2% |
| Cc1nnc2sc3c(NCc4ccc(F)c(C(=O)NCC(C)C)c4)ncnc3c2c1C [Compound 180, 5-[[(3,4-dimethylpyrimido [4′,5′:4,5]thieno[2,3-c]pyridazin-8-yl)amino]methyl]-2-fluoro-N-isobutyl-benzamide] | 1210 nM | 97.6% |
| Cc1nnc2sc3c(NCc4ccc(F)c(C(=O)NC5CC5(C)C)c4)ncnc3c2c1C (stereo not shown) [Compound 181, N-(2,2-dimethylcyclopropyl)-5-[[(3,4-dimethylpyrimido [4′,5′:4,5]thieno[2,3-c]pyridazin-8-yl)amino]methyl]-2-fluoro-benzamide] | 1160 nM | 96.5% |
| Cc1nnc2sc3c(NCc4ccc(F)c(C(=O)N[C@H](C)C(F)(F)F)c4)ncnc3c2c1C [Compound 182, 5-[[(3,4-dimethylpyrimido [4′,5′:4,5]thieno[2,3-c]pyridazin-8-yl)amino]methyl]-2-fluoro-N-[(1R)-2,2,2-trifluoro-1-methyl-ethyl]benzamide] | 1170 nM | 97.2% |
| Cc1nnc2sc3c(NCc4ccc(F)c(C(=O)NC5CC(F)C5)c4)ncnc3c2c1C (stereo not shown) [Compound 183, 5-[[(3,4-dimethylpyrimido [4′,5′:4,5]thieno[2,3-c]pyridazin-8-yl)amino]methyl]-2-fluoro-N-(3-fluorocyclobutyl) benzamide] | 505 nM | 99.7% |
| Cc1nnc2sc3c(NCc4ccc(F)c(C(=O)NC5CC(F)(F)C5)c4)ncnc3c2c1C [Compound 184, N-(3,3-difluorocyclobutyl)-5-[[(3,4-dimethylpyrimido [4′,5′:4,5]thieno[2,3-c]pyridazin-8-yl)amino]methyl]-2-fluoro-benzamide] | 340 nM | 107% |
| Cc1nnc2sc3c(NCc4ccc(F)c(C(=O)NC(C)C(C)(C)CO)c4)ncnc3c2c1C (stereo not shown) [Compound 185, 5-[[(3,4-dimethylpyrimido [4′,5′:4,5]thieno[2,3-c]pyridazin-8-yl)amino]methyl]-2-fluoro-N-(3-hydroxy-1,2,2-trimethyl-propyl)benzamide] | 794 nM | 94.2% |

| SMILES | EC50 | Emax |
| --- | --- | --- |
| COCCNC(=O)c1cc(CNc2ncnc3c2sc2nnc(C)c(C)c23)ccc1F [Compound 186, 5-[[(3,4-dimethylpyrimido [4′,5′:4,5]thieno[2,3-c]pyridazin-8-yl)amino]methyl]-2-fluoro-N-(2-methoxyethyl)benzamide] | 687 nM | 86.8% |
| CNC(=O)c1cc(CNc2ncnc3c2sc2nnc(C)c(C)c23)ccc1F [Compound 187, 5-[[(3,4-dimethylpyrimido [4′,5′:4,5]thieno[2,3-c]pyridazin-8-yl)amino]methyl]-2-fluoro-N-methyl-benzamide] | 154 nM | 87.6% |
| Cc1nnc2sc3c(NCc4ccc(C(C)(C)O)c(Cl)c4)ncnc3c2c1C [Compound 188, 2-[2-chloro-4-[[(3,4-dimethylpyrimido [4′,5′:4,5]thieno[2,3-c]pyridazin-8-yl)amino]methyl]phenyl]propan-2-ol] | 775 nM | 79.8% |
| Cc1nnc2sc3c(NCc4ccc(C(C)(C)O)cc4Cl)ncnc3c2c1C [Compound 189, 2-[3-chloro-4-[[(3,4-dimethylpyrimido [4′,5′:4,5]thieno[2,3-c]pyridazin-8-yl)amino]methyl]phenyl]propan-2-ol] | 831 nM | 94.3% |
| Cc1nnc2sc3c(NCc4ccc(-c5cccs5)cc4)ncnc3c2c1C [Compound 190, 3,4-dimethyl-N-[[4-(2-thienyl)phenyl]methyl] pyrimido[4′,5′:4,5]thieno [2,3-c]pyridazin-8-amine] | 3210 nM | 90.8% |
| Cc1nnc2sc3c(NCc4ccc(-c5ccc[nH]5)cc4)ncnc3c2c1C [Compound 191, 3,4-dimethyl-N-[[4-(1H-pyrrol-2-yl)phenyl]methyl]pyrimido[4′,5′:4,5] thieno[2,3-c]pyridazin-8-amine] | 837 nM | 56.9% |
| Cc1nnc2sc3c(NCc4ccc(-c5ccn(C)n5)cc4)ncnc3c2c1C [Compound 192, 3,4-dimethyl-N-[[4-(1-methylpyrazol-3-yl)phenyl]methyl]pyrimido [4′,5′:4,5]thieno[2,3-c] pyridazin-8-amine] | 851 nM | 85.9% |
| Cc1nnc2sc3c(NCc4ccc(-c5ccnn5C)cc4)ncnc3c2c1C [Compound 193, 3,4-dimethyl-N-[[4-(2-methylpyrazol-3-yl)phenyl]methyl]pyrimido [4′,5′:4,5]thieno[2,3-c] pyridazin-8-amine] | 439 nM | 82% |
| COCC1CN(c2ncnc3c2sc2nc(C)cc(C)c23)C1 [Compound 194, 4-[3-(methoxymethyl)azetidin-1-yl]-7.9-dimethyl-pyrido [3′,2′:4,5]thieno[3,2-d] pyrimidine] | 762 nM | 88.7% |
| Cc1cc(C)c2c(n1)sc1c(N3CC4(COC4)C3)ncnc12 [Compound 195, 6-(7,9-dimethylpyrido [3′,2′:4,5]thieno[3,2-d]pyrimidin-4-yl)-2-oxa-6-azaspiro[3.3]heptane] | – | 76.3% |
| Cc1cc(C)c2c(n1)sc1c(N3CC4CC4C3)ncnc12 (stereo not shown) [Compound 196, 4-(3-azabicyclo [3.1.0]hexan-3-yl)-7,9-dimethyl-pyrido [3′,2′:4,5]thieno[3,2-d] pyrimidine] | 453 nM | 74.5% |
| Cc1cc(C)c2c(n1)sc1c(N3CCC3)ncnc12 [Compound 197, 4-(azetidin-1-yl)-7,9-dimethyl-pyrido [3′,2′:4,5]thieno[3,2-d] pyrimidine] | 172 nM | 58.7% |
| Cc1cc(C)c2c(n1)sc1c(N3CC(F)(F)C3)ncnc12 [Compound 198, 4-(3,3-difluoroazetidin-1-yl)-7,9-dimethyl-pyrido[3′,2′:4,5] thieno[3,2-d]pyrimidine] | 456 nM | 68.7% |
| Cc1cc(C)c2c(n1)sc1c(N3CCCC3)ncnc12 [Compound 199, 7,9-dimethyl-4-pyrrolidin-1-yl-pyrido[3′,2′:4,5] thieno[3,2-d]pyrimidine] | 277 nM | 67.3% |
| Cc1cc(C)c2c(n1)sc1c(NC3CCC3)ncnc12 [Compound 200, N-cyclobutyl-7,9-dimethyl-pyrido [3′,2′:4,5]thieno[3,2-d] pyrimidin-4-amine] | 359 nM | 75.5% |
